Series [1] concerns KELLY cells. Briefly: Secondary validation screen of synthetic lethal miRNAs with low dose IC30 chemotherapy, cell viability. The series is classed as cell-based. Particulars: for Secondary screen Viability (% of control) Kelly DXR: miRNA mimic + low dose IC30 doxorubicin; for Secondary screen Viability (% of control) Kelly VCR: miRNA mimic + low dose IC30 vincristine; for Secondary screen Viability (% of control) Kelly Vehicle: miRNA mimic + vehicle. The method, then: (§1) KELLY cells were grown in 10% FCS/RPMI as described in Example 1 and reverse transfected in 384-well plate format with 25 nM of a miRNA from the Dharmacon microRNA mimic Library (version 16.0) using liquid-handling robot Calliper Sciclone ALH3000 according to the conditions described in Table 3. After 24 hours, media was changed using a BioTek 406. Media was again changed after 48 hours and 96 hours using a BioTek 406, and at each of those time points low dose IC30 of vincristine or doxorubicin was added to the culture. 144 hours post-transfection, cell viability was determined using CellTiter-Glo luminescent assay (Promega) at 1:2 dilution. Luminescence measurements were taken on the Synergy H4 high-throughput multimode microplate reader as described in Example 1. All screens were performed in duplicates. The experimental design and timeline for this screen are illustrated in FIGS. 5 and 6, respectively.
(§2) The secondary validation screens were performed in accordance with the genome-wide screens described in Example 1 and Example 2, respectively, with the exception that an additional MYCN-amplified neuroblastoma cell line (SK-N-DZ) was added to each screen.
(§3) Furthermore, five additional non-active miRNAs discovered to have no measureable effect across all treatment groups of the genome-wide screen (‘non-lethal’ miRNAs) were included as negative controls.

Another series has as its system IMR-90 cells. Briefly: Cell toxicity screen of synthetic lethal miRNAs in non-cancer cells. The protocol:
The cell toxicity screens were performed in IMR-90 cells (normal human fibroblast cells, ATCC).

Series [2] deals with SK-N-DZ MYCN-amplified neuroblastoma cell line. Kind of series: Secondary validation screen of synthetic lethal miRNAs with low dose IC30 chemotherapy, additional cell line. The series is classed as cell-based. The following applies: for Additional cell line Viability (% of control) SKNDZ DXR: miRNA mimic + low dose IC30 doxorubicin; for Additional cell line Viability (% of control) SKNDZ VCR: miRNA mimic + low dose IC30 vincristine; for Additional cell line Viability (% of control) SKNDZ Vehicle: miRNA mimic + vehicle. The method, then:
as §1, §2, §3

Series [3] concerns KELLY cells. Kind of series: Primary miRNA mimic screen in combination with low dose IC30 of vincristine or doxorubicin, cell viability. It counts as cell-based. Particulars: for Primary screen Viability (% of control) Kelly DXR: miRNA mimic 25 nM + low dose IC30 doxorubicin; for Primary screen Viability (% of control) Kelly VCR: miRNA mimic 25 nM + low dose IC30 vincristine; for Primary screen Viability (% of control) Kelly Vehicle: miRNA mimic 25 nM + vehicle. The method, then: To systematically identify miRNAs that affect viability and survival of neuroblstoma cells in combination with chemotherapy, a further functional miRNA screen was performed using the 1200 miRNAs from the miRIDIAN miRNA mimic Library (version 16.0; Dharmacon) in combination with low dose IC30 of vincristine or doxorubicin in the two neuroblastoma cancer cell lines. In doing so, the inventors identified miRNAs which result in a lethal phenotype to neuroblastoma cells when administered in combination with low dose IC30 chemotherapy (hereinafter referred to as ‘synthetic lethal’ miRNAs). […] After 24 hours, media was changed using a BioTek 406. […] Luminescence measurements were taken on the Synergy H4 high-throughput multimode microplate reader as described in Example 1. All screens were performed in duplicates.

For the substance “hsa-miR-515-3p (guide GAGUGCCUUCUUUUGGAGCGUU; chemistry not given here; listed as Homo sapiens)”, the “synthetic lethality with chemotherapy” value in the series with KELLY cells [1] (in both Kelly and SKNDZ MYCN-amplified cells, secondary screen) is “substantial synthetic lethality”. In the series with KELLY cells [1], the “Secondary screen Viability (% of control) Kelly DXR” value is listed as 42 % of control, the “Secondary screen Viability (% of control) Kelly VCR” value is recorded as 73 % of control and the “Secondary screen Viability (% of control) Kelly Vehicle” value is reported as 82 % of control. In addition, in the series on IMR-90 cells (IMR-90, miRNA + low dose IC30 doxorubicin), the “cell viability in non-cancer cells, DXR (% of control)” value is 50 % of control. For the same substance, the “cell viability in non-cancer cells, VCR (% of control)” value in the series on IMR-90 cells (IMR-90, miRNA + low dose IC30 vincristine) is 51 % of control. Also, in the series with IMR-90 cells (IMR-90, miRNA alone (media)), the “cell viability in non-cancer cells, Media (% of control)” value is 59 % of control. Moreover, in series [2], the “Additional cell line Viability (% of control) SKNDZ DXR” value is given as 24 % of control, the “Additional cell line Viability (% of control) SKNDZ VCR” value is reported as 70 % of control and the “Additional cell line Viability (% of control) SKNDZ Vehicle” value is 85 % of control. For the same substance, in the series with KELLY cells [3], the “Primary screen Viability (% of control) Kelly DXR” value was 38 % of control, the “Primary screen Viability (% of control) Kelly VCR” value is recorded as 56 % of control and the “Primary screen Viability (% of control) Kelly Vehicle” value is recorded as 84 % of control.
Regarding “hsa-miR-3924 (AUAUGUAUAUGUGACUGCUACU; chemistry not given here; listed as Homo sapiens)”, in the series on KELLY cells [1], the “Secondary screen Viability (% of control) Kelly DXR” value is 46 % of control, the “Secondary screen Viability (% of control) Kelly VCR” value is on record as 57 % of control and the “Secondary screen Viability (% of control) Kelly Vehicle” value was 75 % of control. Further, in series [2], the “Additional cell line Viability (% of control) SKNDZ DXR” value is 41 % of control, the “Additional cell line Viability (% of control) SKNDZ VCR” value was 81 % of control and the “Additional cell line Viability (% of control) SKNDZ Vehicle” value is reported as 85 % of control. In addition, in the series with KELLY cells [3], the “Primary screen Viability (% of control) Kelly DXR” value is listed as 35 % of control, the “Primary screen Viability (% of control) Kelly VCR” value was 40 % of control and the “Primary screen Viability (% of control) Kelly Vehicle” value is recorded as 72 % of control.
As to “hsa-miR-3646 (AAAAUGAAAUGAGCCCAGCCCA; chemistry not given here; listed as Homo sapiens)”, in the series with KELLY cells [1], the “Secondary screen Viability (% of control) Kelly DXR” value is recorded as 45 % of control, the “Secondary screen Viability (% of control) Kelly VCR” value was 72 % of control and the “Secondary screen Viability (% of control) Kelly Vehicle” value is 70 % of control. Besides, in series [2], the “Additional cell line Viability (% of control) SKNDZ DXR” value is recorded as 52 % of control, the “Additional cell line Viability (% of control) SKNDZ VCR” value is reported as 110 % of control and the “Additional cell line Viability (% of control) SKNDZ Vehicle” value is reported as 101 % of control. Moreover, in the series on KELLY cells [3], the “Primary screen Viability (% of control) Kelly DXR” value is 34 % of control, the “Primary screen Viability (% of control) Kelly VCR” value is on record as 55 % of control and the “Primary screen Viability (% of control) Kelly Vehicle” value is recorded as 74 % of control.
Regarding “hsa-miR-3181 (AUCGGGCCCUCGGCGCCGG; chemistry not given here; listed as Homo sapiens)”, in the series with KELLY cells [1], the “Secondary screen Viability (% of control) Kelly DXR” value is recorded as 61 % of control, the “Secondary screen Viability (% of control) Kelly VCR” value is listed as 96 % of control and the “Secondary screen Viability (% of control) Kelly Vehicle” value is 108 % of control. Further, in series [2], the “Additional cell line Viability (% of control) SKNDZ DXR” value is listed as 38 % of control, the “Additional cell line Viability (% of control) SKNDZ VCR” value is 83 % of control and the “Additional cell line Viability (% of control) SKNDZ Vehicle” value is 91 % of control. Moreover, in the series on KELLY cells [3], the “Primary screen Viability (% of control) Kelly DXR” value is 34 % of control, the “Primary screen Viability (% of control) Kelly VCR” value is listed as 57 % of control and the “Primary screen Viability (% of control) Kelly Vehicle” value is listed as 94 % of control.
“hsa-miR-34c-5p (AGGCAGUGUAGUUAGCUGAUUGC; chemistry not given here; listed as Homo sapiens)”: in the series with KELLY cells [1], the “Secondary screen Viability (% of control) Kelly DXR” value was 80 % of control, the “Secondary screen Viability (% of control) Kelly VCR” value is 18 % of control and the “Secondary screen Viability (% of control) Kelly Vehicle” value is given as 68 % of control. Moreover, in series [2], the “Additional cell line Viability (% of control) SKNDZ DXR” value is 34 % of control, the “Additional cell line Viability (% of control) SKNDZ VCR” value is listed as 31 % of control and the “Additional cell line Viability (% of control) SKNDZ Vehicle” value was 53 % of control. In the series on KELLY cells [3], the “Primary screen Viability (% of control) Kelly DXR” value is reported as 74 % of control, the “Primary screen Viability (% of control) Kelly VCR” value is given as 36 % of control and the “Primary screen Viability (% of control) Kelly Vehicle” value is listed as 72 % of control.
“hsa-miR-100-5p (AACCCGUAGAUCCGAACUUGUG; chemistry not given here; listed as Homo sapiens)”: in the series on KELLY cells [1], the “Secondary screen Viability (% of control) Kelly DXR” value is 43 % of control, the “Secondary screen Viability (% of control) Kelly VCR” value is given as 43 % of control and the “Secondary screen Viability (% of control) Kelly Vehicle” value is listed as 69 % of control. Moreover, in series [2], the “Additional cell line Viability (% of control) SKNDZ DXR” value was 48 % of control, the “Additional cell line Viability (% of control) SKNDZ VCR” value is 69 % of control and the “Additional cell line Viability (% of control) SKNDZ Vehicle” value was 98 % of control. Besides, in the series on KELLY cells [3], the “Primary screen Viability (% of control) Kelly DXR” value is reported as 34 % of control, the “Primary screen Viability (% of control) Kelly VCR” value is reported as 48 % of control and the “Primary screen Viability (% of control) Kelly Vehicle” value is on record as 68 % of control.
With “hsa-miR-3151 (GGUGGGGCAAUGGGAUCAGGU; chemistry not given here; listed as Homo sapiens)”, in the series on KELLY cells [1], the “Secondary screen Viability (% of control) Kelly DXR” value was 65 % of control, the “Secondary screen Viability (% of control) Kelly VCR” value was 47 % of control and the “Secondary screen Viability (% of control) Kelly Vehicle” value is 102 % of control. Moreover, in series [2], the “Additional cell line Viability (% of control) SKNDZ DXR” value is on record as 71 % of control, the “Additional cell line Viability (% of control) SKNDZ VCR” value was 72 % of control and the “Additional cell line Viability (% of control) SKNDZ Vehicle” value is listed as 87 % of control. In addition, in the series with KELLY cells [3], the “Primary screen Viability (% of control) Kelly DXR” value is reported as 40 % of control, the “Primary screen Viability (% of control) Kelly VCR” value is on record as 52 % of control and the “Primary screen Viability (% of control) Kelly Vehicle” value is reported as 102 % of control.
For “hsa-miR-449a (guide UGGCAGUGUAUUGUUAGCUGGU; chemistry not given here; listed as Homo sapiens)”, in the series on KELLY cells [1], the “Secondary screen Viability (% of control) Kelly DXR” value was 83 % of control, the “Secondary screen Viability (% of control) Kelly VCR” value was 35 % of control and the “Secondary screen Viability (% of control) Kelly Vehicle” value is recorded as 75 % of control. Besides, in series [2], the “Additional cell line Viability (% of control) SKNDZ DXR” value was 49 % of control, the “Additional cell line Viability (% of control) SKNDZ VCR” value is listed as 44 % of control and the “Additional cell line Viability (% of control) SKNDZ Vehicle” value was 71 % of control. In the series on KELLY cells [3], the “Primary screen Viability (% of control) Kelly DXR” value was 62 % of control, the “Primary screen Viability (% of control) Kelly VCR” value was 22 % of control and the “Primary screen Viability (% of control) Kelly Vehicle” value is 72 % of control.

Source of the values: patent US20190300882A1, “METHODS OF TREATING NEUROBLASTOMA AND REAGENTS THEREFOR” (GARVAN INSTITUTE OF MEDICAL RESEARCH, priority 2016, published 2019).
